Experimental data published in patent US4680389A, “Temperature stable crystalline di(1-methyl-2-pyrralidinone) and di(N-formylpyrrolidine) adducts of cephalosporin derivatives” (priority 1986, dated 1987).

Legend:
[1] = Stabilities at elevated temperatures (percent potency loss by HPLC, dry containers); type: physicochemical
Experimental: Elevated temperature stabilities were determined by storing the preparations in dry containers (1 dram screw cap vials) at temperatures and for time periods as denoted below. Potency losses or gains were determined by HPLC. […] Each compound form tested was prepared in accordance with the example which is designated.

Rat = assay: Toxicity data (LD50) in rat; type: in vivo; details: route not stated
Experimental: (§1) Toxicity data (LD50) was determined for the following compounds which are utilized in the instant invention or prepared according to the instant invention.

[2] = Toxicity data (LD50) in rat; type: in vivo; details: in vivo, route not stated
Experimental: as §1

[3] = HPLC stability of Example 1 di(1-methyl-2-pyrrolidinone) adduct at 70° C.; type: physicochemical
Experimental: 1.0 g of the sulfuric acid addition salt of the zwitterion is vigorously slurried in 10 ml of 1-methyl-2-pyrrolidinone (NMP-2) at 25° C.-45° C. The crystalline mass is mixed with 0.49 ml (2.02 molar equivalents) of triethylamine (TEA) over a period of 0.5 to 1.5 hours. The mixture is seeded with 1-methyl-2-pyrrolidinone adduct and vigorously stirred for 6 to 24 hours. The crystals are then separated by vacuum filtration, washed with two 3 ml portions of 1-methyl-2-pyrrolidinone, two 5 ml portions of ether and vacuum dried at 45° to 55° C. for 2 hours.

[4] = Stability in aqueous solution; type: physicochemical; details: 250 mg/ml aqueous solution, ambient pH 4 to 5, at least six hours at 25° C.; 360 min
Description: These crystalline adducts display acceptable stability when they are placed in solution.

various organisms = details: cited from earlier work
[5] = elevated temperatures (e.g. 45° C. and above), one week, dry powder; 10080 min; cited from earlier work

Which “PERCENT LOSS” value ([1]; 37° C., 1 month, 43200 min, listed as Di(NFP) Adduct) does the source give for `CO/N=C(\C(=O)NC1C(=O)N2C(C(=O)[O-])=C(C[N+]3(C)CCCC3)CSC12)c1csc(N)n1` (centres unmarked) here?
The value was 0%.

And the “PERCENT LOSS” value ([1]; 45° C., 1 week, 10080 min, listed as Di(NFP) Adduct)?
The value was 0-3%.

What about the “PERCENT LOSS” value ([1]; 45° C., 4 weeks, 40320 min, listed as Di(NFP) Adduct) of the same molecule?
The value was 3.5-5.9%.

What about the “PERCENT LOSS” value ([1]; 56° C., 1 week, 10080 min, listed as Di(NFP) Adduct) of the same molecule?
The value was 7.1%.

What about the “PERCENT LOSS” value ([1]; 56° C., 2 weeks, 20160 min, listed as Di(NFP) Adduct) of the same molecule?
Its value is 9.3%.

What about the “PERCENT LOSS” value ([1]; 70° C., 1 day, listed as Di(NFP) Adduct, 1440 min) of the same molecule?
Its value is 1.5%.

And the “PERCENT LOSS” value ([1]; 70° C., 3 days, listed as Di(NFP) Adduct, 4320 min)?
Its value is 0-4.4%.

And the degraded at 672 h ([1]; dry solid, 56° C., 4 weeks)?
Its degraded at 672 h is 18.1%.

What about the “Rat LD50” value (Rat; listed as Di(N--formyl pyrrolidine) adduct) of the same molecule?
The value was 495 mg/kg.

With `CN1CCCC1=O` [1-Methyl-2-pyrrolidinone, 1-methyl-2-pyrrolidinone] as the molecule, how does the LD50 [2] read?
Its LD50 is > 2000 mg/kg.

What about the “Rat LD50” value (Rat) of the same molecule?
Its value is < 2500 mg/kg.

For `CN1CCCC1=O.CN1CCCC1=O.CO/N=C(\C(=O)NC1C(=O)N2C(C(=O)[O-])=C(C[N+]3(C)CCCC3)CSC12)c1csc(N)n1` (centres unmarked) [Di(1-methyl-2-pyrrolidinone) adduct, di(1-methyl-2-pyrrolidinone) adduct of 7-[(Z)-2-methoxyimino-2-(2-aminothiazol-4-yl)acetamido-]3-[(1-methyl-1-pyrrolidinium)methyl]-3-cephem-4-carboxylate], which “PERCENT LOSS” value ([1]; 37° C., 3 months, 129600 min) is on record?
Its value is 1.2%.

And the “PERCENT LOSS” value ([1]; 45° C., 4 weeks, 40320 min)?
The value was 1.6%.

What about the “PERCENT LOSS” value ([1]; 45° C., 6 weeks, 60480 min) of the same molecule?
The value was 3.0%.

And the “PERCENT LOSS” value ([1]; 45° C., 8 weeks, 80640 min)?
Its value is 0-3%.

What about the “PERCENT LOSS” value ([1]; 56° C., 1 week, 10080 min) of the same molecule?
The value was 2.1%.

What about the “PERCENT LOSS” value ([1]; 56° C., 2 weeks, 20160 min) of the same molecule?
Its value is 3.4%.

And the “PERCENT LOSS” value ([1]; 56° C., 4 weeks, 40320 min)?
The value was 4.2%.

What about the “PERCENT LOSS” value ([1]; 56° C., 6 weeks, 60480 min) of the same molecule?
The value was 7.0%.

And the “PERCENT LOSS” value ([1]; 56° C., 8 weeks, 80640 min)?
Its value is 0.9%.

What about the “PERCENT LOSS” value ([1]; 70° C., 1 day) of the same molecule?
Its value is 0%.

And the “PERCENT LOSS” value ([1]; 70° C., 2 days)?
The value was 2.1%.

What about the “PERCENT LOSS” value ([1]; 70° C., 3 days) of the same molecule?
Its value is 2.1%.

And the “PERCENT LOSS” value ([1]; 70° C., 5 days)?
Its value is 2.1%.

And the “PERCENT LOSS” value ([1]; 100° C., 1 day)?
Its value is 13-16%.

What about the “HPLC Stability % Loss” value ([3]; 1 Day) of the same molecule?
Its value is 0-2.3%.

And the “HPLC Stability % Loss” value ([3]; 3 Days)?
Its value is 5-6.5%.

What about the “Rat LD50” value (Rat) of the same molecule?
The value was 663 mg/kg.

What about the “potency loss in aqueous solution” value [4] of the same molecule?
The value was “less than 10%”.

Which LD50 [2] does the source give for `O=CN1CCCC1` [N--Formyl pyrrolidine, N-formyl pyrrolidine] here?
Its LD50 is > 500 mg/kg.

What about the “Rat LD50” value (Rat) of the same molecule?
Its value is < 1000 mg/kg.

With `CO/N=C(\C(=O)NC1C(=O)N2C(C(=O)[O-])=C(C[N+]3(C)CCCC3)CSC12)c1csc(N)n1` (centres unmarked) [Zwitterion (Amorphous), 7-[(Z)-2-methoxyimino-2-(2-aminothiazol-4-yl)acetamido]-3-[(1-methyl-1-pyrrolidinium)methyl]-3-cephem-4-carboxylate, reference compound] as the molecule, how does the “PERCENT LOSS” value ([1]; 45° C., 1 week, 10080 min) read?
The value was 34.1%.

What about the “PERCENT LOSS” value ([1]; 45° C., 4 weeks, 40320 min) of the same molecule?
The value was 71%.

What about the “PERCENT LOSS” value ([1]; 56° C., 1 week, 10080 min) of the same molecule?
Its value is 49.6%.

And the “PERCENT LOSS” value ([1]; 70° C., 1 day, 1440 min)?
The value was 34.5%.

What about the “PERCENT LOSS” value ([1]; 70° C., 2 days, 2880 min) of the same molecule?
Its value is 46.2%.

What about the “PERCENT LOSS” value ([1]; 70° C., 3 days, 4320 min) of the same molecule?
Its value is 55.2%.

What about the degraded at 24 h ([1]; dry solid, 100° C., 1 day) of the same molecule?
The degraded at 24 h was 100%.

Which results are given for `CO/N=C(\C(=O)NC1C(=O)N2C(C(=O)[O-])=C(C[N+]3(C)CCCC3)CSC12)c1csc(N)n1` (centres unmarked) [Zwitterion (Crystalline), 7-[(Z)-2-methoxyimino-2-(2-aminothiazol-4-yl)acetamido]-3-[(1-methyl-1-pyrrolidinium)methyl]-3-cephem-4-carboxylate]?
temperature stability of crystalline vs amorphous form [1]: more temperature stable than the amorphous form; PERCENT LOSS ([1]; 37° C., 1 month, 43200 min): 20.0%; PERCENT LOSS ([1]; 45° C., 1 week, 10080 min): 14.2%; PERCENT LOSS ([1]; 56° C., 1 week, 10080 min): 25.6%; PERCENT LOSS ([1]; 56° C., 2 weeks, 20160 min): 30.0%; PERCENT LOSS ([1]; 70° C., 2 days, 2880 min): 13.5%; PERCENT LOSS ([1]; 70° C., 3 days, 4320 min): 20.5%; degraded at 336 h ([1]; dry solid, 45° C., 2 weeks): 23%

What does the source list for `CO/N=C(\C(=O)NC1C(=O)N2C(C(=O)[O-])=C(C[N+]3(C)CCCC3)CSC12)c1csc(N)n1` (centres unmarked) [Zwitterion, 7-[(Z)-2-methoxyimino-2-(2-aminothiazol-4-yl)acetamido]-3-[(1-methyl-1-pyrrolidinium)methyl]-3-cephem-4-carboxylate]?
LD50 [2]: 665 mg/kg; utility against various organisms (various organisms; data in U.S. Pat. No. 4,406,899): broad spectrum utility against various organisms; spectrum of activity compared with ceftazidime and cefotaxime (various organisms; zwitterion form vs ceftazidime and cefotaxime): broader spectrum activity than ceftazidime and cefotaxime; loss of activity on storage [5]: ≥ 30%
